Experimental data as given in patent US12157746B2, “Tetrahydro-1H-pyrazino[2,1-a]isoindolylquinoline compounds for the treatment of autoimmune disease” (F. HOFFMANN-LA ROCHE AG, priority 2018, dated 2024).

Legend:
[1] = target: T1, human TLR9 (Homo sapiens, UniProt Q9NR96); test: HEK293-Blue-hTLR-9 cells assay; format: cell-based; settings: HEK293-Blue-hTLR9 cells, ODN2006 stimulation, 20 hrs, SEAP reporter; read-out: HEK/hTLR9 IC50
T1 sequence (Q9NR96 26-1032): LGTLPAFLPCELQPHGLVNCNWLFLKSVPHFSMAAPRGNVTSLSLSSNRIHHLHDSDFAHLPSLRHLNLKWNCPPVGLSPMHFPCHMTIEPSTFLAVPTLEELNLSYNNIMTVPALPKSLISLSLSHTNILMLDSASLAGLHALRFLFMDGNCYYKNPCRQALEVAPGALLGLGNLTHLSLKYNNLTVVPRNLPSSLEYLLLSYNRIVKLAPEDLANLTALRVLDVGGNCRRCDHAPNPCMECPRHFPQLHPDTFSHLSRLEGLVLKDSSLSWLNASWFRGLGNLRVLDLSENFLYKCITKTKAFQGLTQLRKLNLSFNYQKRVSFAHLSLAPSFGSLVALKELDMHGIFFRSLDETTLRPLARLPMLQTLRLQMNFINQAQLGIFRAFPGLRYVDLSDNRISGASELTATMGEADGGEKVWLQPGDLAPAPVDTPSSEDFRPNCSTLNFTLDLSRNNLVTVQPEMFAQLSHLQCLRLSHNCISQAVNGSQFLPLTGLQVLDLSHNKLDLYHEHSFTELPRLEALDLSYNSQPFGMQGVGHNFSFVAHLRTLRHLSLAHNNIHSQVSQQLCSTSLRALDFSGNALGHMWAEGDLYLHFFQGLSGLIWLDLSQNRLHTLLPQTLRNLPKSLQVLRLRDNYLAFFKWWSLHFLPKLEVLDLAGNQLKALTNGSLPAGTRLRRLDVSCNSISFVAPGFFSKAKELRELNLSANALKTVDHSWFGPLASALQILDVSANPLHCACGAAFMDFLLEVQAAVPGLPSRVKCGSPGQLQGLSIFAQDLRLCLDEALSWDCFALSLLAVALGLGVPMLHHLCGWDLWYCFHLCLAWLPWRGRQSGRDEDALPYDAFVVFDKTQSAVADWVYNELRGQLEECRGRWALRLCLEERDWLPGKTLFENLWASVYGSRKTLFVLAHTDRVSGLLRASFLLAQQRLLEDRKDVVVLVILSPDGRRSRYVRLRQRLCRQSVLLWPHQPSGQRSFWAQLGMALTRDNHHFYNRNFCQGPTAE
Source text: HEK293-Blue-hTLR-9 Cells Assay:
A stable HEK293-Blue-hTLR-9 cell line was purchased from InvivoGen (Cat. #: hkb-htlr9, San Diego. California USA). These cells were originally designed for studying the stimulation of human TLR9 by monitoring the activation of NF-κB. A SEAP (secreted embryonic alkaline phosphatase) reporter gene was placed under the control of the IFN-β minimal promoter fused to five NF-κB and AP-1-binding sites. The SEAP was induced by activating NF-κB and AP-1 via stimulating HEK-Blue hTLR9 cells with TLR9 ligands. Therefore the reporter expression was declined by TLR9 antagonist under the stimulation of a ligand, such as ODN2006 (Cat. #: tlrl-2006-1, Invivogen, San Diego, California USA), for incubation of 20 hrs. The cell culture supernatant SEAP reporter activity was determined using QUANTI-Blue™ kit (Cat. #: rep-qb1, Invivogen, San Diego, California, USA) at a wavelength of 640 nm, a detection medium that turns purple or blue in the presence of alkaline phosphatase.
HEK293-Blue-hTLR9 cells were incubated at a density of 250.000-450,000 cells/mL in a volume of 170 μL in a 96-well plate in Dulbecco's Modified Eagle's medium (DMEM) containing 4.5 g/L glucose, 50 U/mL penicillin, […], […], 2 mM L-glutamine, 10% (v/v) heat-inactivated fetal bovine serum with addition of 20 μL test compound 1n a serial dilution in the presence of final DMSO at 1% and 10 μL of 20 uM ODN2006 in above DMEM, perform incubation under 37° C. in a CO2 incubator for 20 hrs. Then 20 μL of the supernatant from each well was incubated with 180 μL Quanti-blue substrate solution at 37° C. for 2 h and the absorbance was read at 620˜655 nm using a spectrophotometer. The signaling pathway that TLR9 activation leads to downstream NF-κB activation has been widely accepted, and therefore similar reporter assay was modified for evaluating TLR9 antagonist.

[2] = Human microsomal stability assay; format: in vitro ADME; settings: human liver microsomes 0.5 mg/mL, 37° C., pH 7.4, NADPH regenerating system, 0-30 minutes
Description: Human Microsomal Stability Assay
Human liver microsomes (Cat. NO.: 452117, Corning, USA) were preincubated with test compound for 10 minutes at 37° C. in 100 mM potassium phosphate buffer, pH 7.4. The reactions were initiated by adding NADPH regenerating system. The final incubation mixtures contained […] test compound, 0.5 mg/mL liver microsomal protein, 1 mM MgCl2, 1 mM NADP, 1 unit/mL isocitric dehydrogenase and 6 mM isocitric acid in 100 mM potassium phosphate buffer, pH 7.4. After incubation times of 0, 3, 6, 9, 15 and 30 minutes at 37° C., 300 μL of cold ACN (including internal standard) was added to 100 μL incubation mixture to terminate the reaction. Following precipitation and centrifugation, 100 μL supernatant will be taken out and added 300 uL water. The amount of compound remaining in the samples was determined by LC-MS/MS. Controls of no NADPH regenerating system at zero and 30 minutes were also prepared and analyzed. The results were categorized as: low (<7.0 mLJmin/kg), medium (7.0-16.2 mL/min/kg) and high (16.2-23.2 mLJmin/kg).

Row | SMILES | IC50 [1] [nM] | CL (h) [2] [mL/min/kg]
1 | CO[C@@H]1CN(c2ccc3c(c2)CN2C3CN(c3ccc(C#N)c4ncccc34)C[C@H]2C)C[C@@H]1N (relative stereo) [Example 17, 5-[(4R,10bS)-8-[cis-3-amino-4-methoxy-pyrrolidin-1-yl]-4-methyl-3,4,6,10b-tetrahydro-1H-pyrazino[2,1-a]isoindol-2-yl]quinoline-8-carbonitrile] | 81 | 6.2
2 | C[C@@H]1CN(c2ccc(C#N)c3ncccc23)CC2c3ccc(N4C[C@H](N)[C@@H](O)C4)cc3CN21 (relative stereo) [Example 21, 5-[(4R,10bS)-8-[trans-3-amino-4-hydroxy-pyrrolidin-1-yl]-4-methyl-3,4,6,10b-tetrahydro-1H-pyrazino[2,1-a]isoindol-2-yl]quinoline-8-carbonitrile] | 56.1 | 6.2
3 | CO[C@H]1CN(c2ccc3c(c2)CN2C3CN(c3ccc(C#N)c4ncccc34)C[C@H]2C)C[C@@H]1N (single isomer, unassigned) [Example 16A] | 113 | 8.5
4 | COC1CN(c2ccc3c(c2)CN2C3CN(c3ccc(C#N)c4ncccc34)C[C@H]2C)CC1N (single isomer, unassigned) [Example 16B] | 97.5 | 8.1
5 | C[C@@H]1CN(c2ccc(C#N)c3ncccc23)C[C@@H]2c3ccc(N4C[C@@H](N)[C@H](O)C4)cc3CN12 (single isomer, unassigned) [Example 40B] | 70.8 | 7.6
6 | C[C@@H]1CN(c2ccc(C#N)c3ncccc23)C[C@@H]2c3ccc(OCCN(C)C)cc3CN12 [Example 25, 5-[(4R,10bS)-8-[2-(dimethylamino)ethoxy]-4-methyl-3,4,6,10b-tetrahydro-1H-pyrazino[2,1-a]isoindol-2-yl]quinoline-8-carbonitrile] | 116 | 8.0
7 | C[C@@H]1CN(c2ccc(C#N)n3nccc23)C[C@@H]2c3ccc(N4C[C@@H](N)[C@H](O)C4)cc3CN12 [Example 110, 4-[(4R,10bS)-8-[(3R,4R)-3-amino-4-hydroxy-pyrrolidin-1-yl]-4-methyl-3,4,6,10b-tetrahydro-1H-pyrazino[2,1-a]isoindol-2-yl]pyrazolo[1,5-a]pyridine-7-carbonitrile] | 53 | –
8 | C[C@@H]1CN(c2ccc(C#N)n3nccc23)C[C@@H]2c3ccc(N4C[C@H](N)[C@@H](O)C4)cc3CN12 [Example 111, 4-[(4R,10bS)-8-[(3S,4S)-3-amino-4-hydroxy-pyrrolidin-1-yl]-4-methyl-3,4,6,10b-tetrahydro-1H-pyrazino[2,1-a]isoindol-2-yl]pyrazolo[1,5-a]pyridine-7-carbonitrile] | 38 | –
9 | CO[C@@H]1CN(c2ccc3c(c2)CN2[C@H](C)CN(c4ccc(C#N)n5ncc(F)c45)C[C@H]32)C[C@H]1N [Example 113, 4-[(4R,10bS)-8-[(3R,4R)-3-amino-4-methoxy-pyrrolidin-1-yl]-4-methyl-3,4,6,10b-tetrahydro-1H-pyrazino[2,1-a]isoindol-2-yl]-3-fluoro-pyrazolo[1,5-a]pyridine-7-carbonitrile] | 135 | –

Other lines, results leading:

Row | IC50 [1] [nM] | CL (h) [2] [mL/min/kg] | SMILES
10 | 101 | 6.2 | N#Cc1ccc(N2CCN3Cc4cc(N5CCNCC5)ccc4C3C2)c2scnc12 (stereo not shown) [Example 4, 7-(8-piperazin-1-yl-3,4,6,10b-tetrahydro-1H-pyrazino[2,1-a]isoindol-2-yl)-1,3-benzothiazole-4-carbonitrile]
11 | 156 | 6.6 | C[C@@H]1CN(c2ccc(C#N)c3ncsc23)C[C@@H]2c3ccc(N4CCNCC4)cc3CN12 [Example 6, 7-[(4R,10bS)-4-methyl-8-piperazin-1-yl-3,4,6,10b-tetrahydro-1H-pyrazino[2,1-a]isoindol-2-yl]-1,3-benzothiazole-4-carbonitrile]
12 | 99.2 | 7.8 | C[C@@H]1CN(c2ccc(C#N)c3nccnc23)C[C@@H]2c3ccc(N4CCNCC4)cc3CN12 [Example 7, 8-[(4R,10bS)-4-methyl-8-piperazin-1-yl-3,4,6,10b-tetrahydro-1H-pyrazino[2,1-a]isoindol-2-yl]quinoxaline-5-carbonitrile]
13 | 92 | 6.2 | C[C@@H]1CN(c2ccc(C#N)c3ncccc23)C[C@@H]2c3ccc(N4CCNC[C@H]4CO)cc3CN12 [Example 11, 5-[(4R,10S)-8-[(2S)-2-(hydroxymethyl)piperazin-1-yl]-4-methyl-3,4,6,10b-tetrahydro-1H-pyrazino[2,1-a]isoindol-2-yl]quinoline-8-carbonitrile]
14 | 71.2 | 6.2 | C[C@@H]1CN(c2ccc(C#N)c3ncccc23)C[C@@H]2c3ccc(N4CCN[C@H](CO)C4)cc3CN12 [Example 12, 5-[(4R,10bS)-8-[(3S)-3-(hydroxymethyl)piperazin-1-yl]-4-methyl-3,4,6,10b-tetrahydro-1H-pyrazino[2,1-a]isoindol-2-yl]quinoline-8-carbonitrile]
15 | 81.1 | 6.2 | C[C@@H]1CN(c2ccc(C#N)c3ncccc23)C[C@@H]2c3ccc(N4CC5CNCC(C4)O5)cc3CN12 [Example 14, 5-[(4R,10bS)-4-methyl-8-(9-oxa-3,7-diazabicyclo[3.3.1]nonan-3-yl)-3,4,6,10b-tetrahydro-1H-pyrazino[2,1-a]isoindol-2-yl]quinoline-8-carbonitrile]
16 | 65.3 | 7.7 | C[C@@H]1CN(c2ccc(C#N)c3ncccc23)C[C@@H]2c3ccc(N4CCC(N)(CO)C4)cc3CN12 (stereo partly drawn) [Example 19, 5-[(4R,10bS)-8-[3-amino-3-(hydroxymethyl)pyrrolidin-1-yl]-4-methyl-3,4,6,10b-tetrahydro-1H-pyrazino[2,1-a]isoindol-2-yl]quinoline-8-carbonitrile]
17 | 86.9 | 6.5 | C[C@@H]1CN(c2ccc(C#N)c3ncccc23)C[C@@H]2c3ccc(N4CC[C@@H](N)C4)cc3CN12 [Example 20, 5-[(4R,10bS)-8-[(3R)-3-aminopyrrolidin-1-yl]-4-methyl-3,4,6,10b-tetrahydro-1H-pyrazino[2,1-a]isoindol-2-yl]quinoline-8-carbonitrile]
